Consider 3 compounds from patent US9839648B2, “Combined anti-acid-fast bacterial agent, screening method for anti-acid-fast bacterial agents, and activity inhibitor of WecA or ortholog thereof” (MICROBIAL CHEMISTRY RESEARCH FOUNDATION, priority 2013, dated 2017).

In general, IC50 refers to the concentration that gives 50% inhibition. A higher IC50 goes with weaker potency.

≈ marks a conversion by molar mass, not a printed value.

For test [1], the system named is Mycobacterium tuberculosis H37Rv. Briefly: MIC by agar dilution method (Mycobacteria). The test is classed as cell-based. The settings on record: 7H10 agar, 37° C., 2 to 14 days. Here is the method:
The MIC for Mycobacteria was measured by an agar dilution method.
Background: Agar dilution tests growth on a series of plates holding different concentrations.

Another test has as its system Mycobacterium bovis BCG. Briefly: microbe, parasite or virus in culture. The settings on record: Mycobacterium tuberculosis variant bovis BCG. The test is classed as cell-based.
The next test has as its system Bacillus subtilis PCI219. Briefly: MIC by agar dilution method (other than Mycobacteria). The test is classed as cell-based. The settings on record: Mueller-Hinton agar, 37° C., 18 hours.
The next test relates to Bacillus subtilis 168. Described as above. The test is classed as cell-based. The settings on record: Mueller-Hinton agar, 37° C., 18 hours.
For test [2], the system named is Staphylococcus aureus FDA209P. Described as above. The test is classed as cell-based.
The subject of test [3] is Enterococcus faecalis JCM 5803. Described as above. The settings on record: JCM5803, Mueller-Hinton agar, 37° C., 18 hours. The test is classed as cell-based.
For test [4], the system named is Streptococcus pneumoniae S-223. Described as above. The test is classed as cell-based.
A further test deals with Escherichia coli K-12. Described as above. The test is classed as cell-based. The settings on record: K12, Mueller-Hinton agar, 37° C., 18 hours.
The next test deals with B. subtilis 168 strain. The test is classed as cell-based, Bacillus subtilis. Conditions: [14C(U)]glycerol, FIGS. 7A, 7C.
A further test deals with T1, TagO (Bacillus subtilis, UniProt O34753).
T1 construct: using disruption liquids of bacterial cells of the 168/pHYcat-mraY strain and the 168/pHYcat-tagO highly expressing these enzymes; expressed in transfected cells; host or cells: Bacillus subtilis 168 carrying plasmid pHYcat-tagO; supernatant of sonicated cells
Briefly: Measurement of TagO activity with disruption liquid of 168/pHYcat-tagO cells. The test is classed as biochemical. The settings on record: compared with caprazamycin B, tunicamycin, vancomycin, levofloxacin; FIG. 9A. Here is the method:
The activities of enzymes MraY and TagO were measured in the following manner using disruption liquids of bacterial cells of the 168/pHYcat-mraY strain and the 168/pHYcat-tagO highly expressing these enzymes and produced in Test Example 3-2.
As a control, tunicamycin, vancomycin and levofloxacin were tested similarly.
The bacterial cells were cultured in an LB medium until logarithmic growth phase (OD600=0.4) and then collected through centrifuging (5,000 rpm, 10 min), followed by washing twice with a TMS buffer (50 mM Tris-HCl (pH 7.5), 625 mM sucrose, 10 mM MgCl2, 5 mM 3-mercapto-1,2-propanediol, 1 mM PMSF).
Next, the precipitate was re-suspended in a TMS buffer having a volume 1/40 the initial volume, and the bacterial cells were disrupted through probe sonication (where the following procedure was repeated 10 times on ice: disrupting them for 30 sec and leaving them stand still for 30 sec). […]
The TagO activity was measured by allowing 0.02 mL of the following reaction mixture to react at 30° C. for 1 hour.
Next, the lower layer containing the reaction product was analyzed through thin-layer chromatography (TLC, using as a developing solvent chloroform:methanol:water:concentrated aqueous ammonia=65:35:4:4) and autoradiography, to thereby calculate the enzymatic activity of TagO as a rate with respect to that of the control. […]

Test [5] addresses WecA of Mycobacterium smegmatis (Mycolicibacterium smegmatis, UniProt A0R211). Briefly: biochemical.
In test [6] the test system is B. subtilis 168 (parent strain). Briefly: MIC by microbroth dilution method, parent strain. For orientation: In broth dilution the organism is exposed to a series of concentrations in liquid medium.
The next test concerns Staph. aureus MRSA No. 5. Briefly: MIC by agar dilution method (other than Mycobacteria).
Test [7] concerns Ent. faecalis NCTC12203 (VRE). Described as above. The settings on record: Enterococcus faecalis, 18 h.
Another test relates to Str. pneumoniae CR-2. The test is described as above.
Test [8] relates to B. subtilis CPZB-resistant strain. Briefly: MIC by microbroth dilution method, CPZB-resistant strain.
The next test deals with B. subtilis 168/pHYcatA. Briefly: MIC by microbroth dilution method, control strain with pHYcat.
Test [9] deals with B. subtilis 168/pHYcat-mraY. Briefly: MIC by microbroth dilution method, mraY highly expressing strain.
Test [10] relates to B. subtilis 168/pHYcat-tagO. Briefly: MIC by microbroth dilution method, tagO highly expressing strain.

As for `CCCCc1ccc(NC(=O)C2=CCN(C)[C@@H]([C@H](O[C@@H]3O[C@H](CN)C(O)C3O)[C@H]3O[C@@H](n4ccc(=O)[nH]c4=O)C(O)C3O)C(=O)N2C)cc1` (stereo partly drawn) [CPZEN-45], the MIC in [1] was found to be 1.56 µg/mL (≈ 2.27 µM); with Mycobacterium bovis BCG, 2 µg/mL (≈ 2.9 µM); in the test with Bacillus subtilis PCI219, 1.56 µg/mL (≈ 2.27 µM); in the test with Bacillus subtilis 168 it was 4 µg/mL (≈ 5.81 µM); in test [2] (Staphylococcus aureus FDA209P, agar dilution, Mueller-Hinton agar, 37° C., 18 hours), 12.5 µg/mL (≈ 18.1 µM); in test [3], 8 µg/mL (≈ 11.6 µM). The MIC in test [4] (S223, Streptococcus pneumoniae S-223, agar dilution, Mueller-Hinton agar, 37° C., 18 hours) was 16 µg/mL (≈ 23.2 µM); against Escherichia coli K-12, over 100 µg/mL; in test [6] (Bacillus subtilis, 16 h) it was 4 µg/mL (≈ 5.81 µM); against Staph. aureus MRSA No. 5 (Staphylococcus aureus, MRSA, 18 h) it was 100 µg/mL (≈ 145 µM); in [7], 8 µg/mL (≈ 11.6 µM); against Str. pneumoniae CR-2 (Streptococcus pneumoniae, CR2, 18 h), 128 µg/mL (≈ 186 µM). In addition, the MIC in test [8] (Bacillus subtilis, 16 h) worked out at 4 µg/mL (≈ 5.81 µM); with B. subtilis 168/pHYcatA (Bacillus subtilis, 168/PHYCATA), 8 µg/mL (≈ 11.6 µM); in test [9] (Bacillus subtilis), 8 µg/mL (≈ 11.6 µM); in [10] (Bacillus subtilis), 64 µg/mL (≈ 92.9 µM). Further, the “antibacterial activity (in words)” value in test [2] (Staphylococcus aureus FDA209 strain, WecA or ortholog not essential for growth) was “no antibacterial activity”; in [4] (Streptococcus pneumoniae S-223 strain, has no WecA or ortholog), “no antibacterial activity”; in the test with Staph. aureus MRSA No. 5 (Staph. aureus MRSA No. 5 strain, WecA or ortholog not essential for growth), “no antibacterial activity”; in the test on Str. pneumoniae CR-2 (Str. pneumoniae CR-2 strain, has no WecA or ortholog), “no antibacterial activity”. The “incorporation into bacterial cells of glycerol (synthesis of teichoic acid)” value in the test on B. subtilis 168 strain is “inhibited”. The “enzymatic activity of TagO (inhibition)” value on TagO is on record as “the most strongly”. In test [5], this compound showed an IC50 of 6.39 nM.

Consider `CN[C@H](CC(C)C)C(=O)N[C@H]1C(=O)N[C@@H](CC(N)=O)C(=O)N[C@H]2C(=O)N[C@H]3C(=O)N[C@H](C(=O)N[C@H](C(=O)O)c4cc(O)cc(O)c4-c4cc3ccc4O)[C@H](O)c3ccc(c(Cl)c3)Oc3cc2cc(c3O[C@@H]2O[C@H](CO)[C@@H](O)[C@H](O)[C@H]2O[C@H]2C[C@](C)(N)[C@H](O)[C@H](C)O2)Oc2ccc(cc2Cl)[C@H]1O` [vancomycin, reference compound], for which the MIC was 0.25 µg/mL (≈ 0.173 µM) in test [6] (Bacillus subtilis, 16 h); 0.25 µg/mL (≈ 0.173 µM) in test [8] (Bacillus subtilis, 16 h); 0.5 µg/mL (≈ 0.345 µM) with B. subtilis 168/pHYcatA (Bacillus subtilis, 168/PHYCATA); 0.5 µg/mL (≈ 0.345 µM) in [9] (Bacillus subtilis); 1 µg/mL (≈ 0.69 µM) in test [10] (Bacillus subtilis).

Consider tunicamycin [reference compound], for which the MIC in test [6] (B. subtilis 168 (parent strain), microbroth dilution, LB medium, 37° C., 16 hours) stood at 0.25 µg/mL; in test [8] (B. subtilis CPZB-resistant strain, microbroth dilution, LB medium, 37° C., 16 hours), 4 µg/mL; in the test with B. subtilis 168/pHYcatA (B. subtilis 168/pHYcatA (control strain), microbroth dilution, LB medium), 1 µg/mL; in test [9] (B. subtilis 168/pHYcat-mraY (mraY highly expressing), microbroth dilution, LB medium), 1 µg/mL; in [10] (B. subtilis 168/pHYcat-tagO (tagO highly expressing), microbroth dilution, LB medium), 16 µg/mL.
